Experimental findings from patent US6881741B2 (ViroChem Pharma Inc., priority 2001, dated 2005) are described below.

Like-named read-outs stand apart in the source and are kept apart here.

This assay deals with recombinant HCV NS5B (HCV RNA-dependent RNA polymerase) (Hepatitis C virus genotype 1b, UniProt P26663). Briefly: biochemical.
[1] abbreviates: related polymerase activity (Example 27 list), read-out: IC50.
Setting [2] is: HCV polymerase activity, list of compounds of Example 27, read-out: IC50 (polymerase activity).

recombinant HCV NS5B (HCV RNA-dependent RNA polymerase), sequence (P26663 2420-3010 limits assumed): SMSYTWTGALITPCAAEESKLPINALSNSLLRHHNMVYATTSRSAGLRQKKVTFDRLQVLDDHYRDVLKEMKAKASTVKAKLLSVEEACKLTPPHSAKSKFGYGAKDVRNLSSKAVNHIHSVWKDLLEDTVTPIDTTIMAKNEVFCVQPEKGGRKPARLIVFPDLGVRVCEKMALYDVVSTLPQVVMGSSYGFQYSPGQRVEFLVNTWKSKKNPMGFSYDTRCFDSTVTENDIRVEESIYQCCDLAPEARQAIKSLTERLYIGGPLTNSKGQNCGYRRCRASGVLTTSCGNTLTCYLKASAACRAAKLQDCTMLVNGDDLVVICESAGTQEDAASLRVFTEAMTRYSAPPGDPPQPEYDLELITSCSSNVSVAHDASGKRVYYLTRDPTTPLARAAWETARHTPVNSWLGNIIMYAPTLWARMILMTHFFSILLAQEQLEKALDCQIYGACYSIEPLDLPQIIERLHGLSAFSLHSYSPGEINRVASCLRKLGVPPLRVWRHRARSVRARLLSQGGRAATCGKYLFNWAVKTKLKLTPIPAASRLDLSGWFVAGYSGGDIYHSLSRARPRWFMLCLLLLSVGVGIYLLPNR

On to `CC(C)CCC(=O)N(C)c1cc(-c2ccccc2)sc1C(=O)O` [Compound 390, 3-[METHYL-(4-METHYL-PENTANOYL)- AMINO]-5-PHENYL-THIOPHENE-2- CARBOXYLIC ACID], for which the IC50 under setting [1] was in the range of 5 to 20 µM.

`C=Cc1ccccc1S(=O)(=O)Nc1cc(-c2ccccc2)sc1C(=O)O` [Compound 137, 5-PHENYL-3-(2-VINYL-BENZENESULFONYLAMINO)-THIOPHENE-2-CARBOXYLIC ACID]: under setting [1], the IC50 was 5 to 20 µM.

On to `Cc1ccc(C(=O)N(Cc2ccc(F)cc2F)c2cc(-c3ccccc3)sc2C(=O)O)cc1` [Compound 336, 3-[(2,4-DIFLUORO-BENZYL)-(4-METHYL- BENZOYL)-AMINO]-5-PHENYL- THIOPHENE-2-CARBOXYLIC ACID], for which the IC50 under setting [1] was less than 5 µM.

Turning to `O=C(O)c1sc(-c2ccccc2)cc1N(Cc1ccccc1)C(=O)CC1CCCC1` [Compound 487, 3-[BENZYL-(2-CYCLOPENTYL-ACETYL)- AMINO]-5-PHENYL-THIOPHENE-2- CARBOXYLIC ACID], the IC50 under setting [2] was less than 5 µM.

Take `CC(=O)N(Cc1cccc(Cl)c1)c1cc(-c2ccccc2)sc1C(=O)O` [Compound 476, 3-[ACETYL-(3-CHLORO-BENZYL)-AMINO]- 5-PHENYL-THIOPHENE-2-CARBOXYLIC ACID]: the half-inhibitory concentration (IC50) under setting [2] is more than 20 µM.

Regarding `COCC(=O)N(Cc1ccc(F)cc1F)c1cc(-c2ccccc2)sc1C(=O)O` [Compound 484, 3-[(2,4-DIFLUORO-BENZYL)-(2-METHOXY- ACETYL)-AMINO]-5-PHENYL-THIOPHENE- 2-CARBOXYLIC ACID], under setting [2], the IC50 is 5 to 20 µM.

`O=C(O)c1sc(-c2ccccc2)cc1N(C(=O)c1ccc(Cl)cc1Cl)C1CCNC1` (stereo not drawn) [Compound 503, 3-[(2,4-DICHLORO-BENZOYL)- PYRROLIDIN-3-YL-AMINO]-5-PHENYL- THIOPHENE-2-CARBOXYLIC ACID]: the IC50 under setting [2] was 5 to 20 µM.

In the case of `O=C(O)c1sc(-c2ccccc2)cc1NS(=O)(=O)c1ccccc1C(F)(F)F` [Compound 35, 5-PHENYL-3-(2-TRIFLUOROMETHYL-BENZENESULFONYLAMINO)-THIOPHENE-2-CARBOXYLIC ACID], the IC50 under setting [1] is more than 20 µM.

Take `O=C(NCCCc1ccccc1)Nc1cc(-c2ccccc2)sc1C(=O)O` [Compound 179, 5-PHENYL-3-[3-(3-PHENYL-PROPYL)-UREIDO]-THIOPHENE-2-CARBOXYLIC ACID]: the IC50 under setting [1] was 5 to 20 µM.

`CC(C)N(C(=O)c1ccc(Cl)cc1I)c1cc(-c2ccccc2)sc1C(=O)O` [Compound 310, 3-[(4-CHLORO-2-IODO-BENZOYL)- ISOPROPYL-AMINO]-5-PHENYL- THIOPHENE-2-CARBOXYLIC ACID]: under setting [1], the IC50 is less than 5 µM.

Regarding `Cc1ccccc1S(=O)(=O)Nc1cc(-c2ccccc2F)sc1C(=O)O` [Compound 101, 5-(2-FLUORO-PHENYL)-3-(TOLUENE-2-SULFONYLAMINO)-THIOPHENE-2-CARBOXYLIC ACID], the 50% inhibitory concentration (IC50) under setting [1] was less than 5 µM.

For the compound `CCc1ccc(-c2cc(N(C(=O)c3ccc(C)cc3O)C(C)C)c(C(=O)O)s2)cc1` [Compound 501, 5-(4-ETHYL-PHENYL)-3-[(2-HYDROXY-4- METHYL-BENZOYL)-ISOPROPYL-AMINO]- THIOPHENE-2-CARBOXYLIC ACID], the IC50 under setting [2] was less than 5 µM.

For the compound `CCCC(=O)N(Cc1ccc(C(C)(C)C)cc1)c1cc(-c2ccccc2)sc1C(=O)O` [Compound 440, 3-[(4-TERT-BUTYL-BENZYL)-BUTYRYL- AMINO]-5-PHENYL-THIOPHENE-2- CARBOXYLIC ACID], the half-inhibitory concentration (IC50) under setting [2] lay within 5 to 20 µM.

Consider `CC1CCC(C(=O)N(c2cc(-c3ccc(C(F)(F)F)cc3)sc2C(=O)O)C(C)C)CC1` (stereo not drawn) [Compound 575, 3-[ISOPROPYL-(4-METHYL- CYCLOHEXANECARBONYL)-AMINO]-5-(4- TRIFLUOROMETHYL-PHENYL)- THIOPHENE-2-CARBOXYLIC ACID], for which the IC50 under setting [2] was less than 5 µM.

For the compound `CN(C(=O)c1ccc(C(F)(F)F)cc1)c1cc(-c2ccccc2)sc1C(=O)O` [Compound 209, 3-[4-(TRIFLUOROMETHYL-BENZOYL)METHYLAMINE]-5-PHENYL-THIOPHENE-2-CARBOXYLIC ACID], under setting [1], the concentration for half-maximal inhibition (IC50) is 5 to 20 µM.
